Experimental data as given in patent US4696920A, “Certain 2-substituted 1,3-propylidenediphosphonate derivatives, pharmaceutical compositions containing them and their use as antihypertensive agents” (priority 1984, dated 1987).
Entries after “also recorded” stand apart in the source; their conditions may differ.

Assays:
[1] = system: rat trachea contraction induced by KCl depolarization; experiment: KCl-induced rat trachea contraction; design: species or system rat (male SHR, Okamoto-Aoki); details: for activity at 1 µM: Rattus norvegicus, 40 min, read-out: Contraction (% max.); for activity on KCl-induced trachea contraction (in words): final concentration 1.0 μM
Method in brief: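 Spiral trachea strips from male SHR rats were held in Krebs-Ringer (pH 7.4, 95/5 O2/CO2, 37±1° C) under 1.5–2 g tension, and contraction was measured isometrically. After a 65 mM KCl plateau, drugs (1.0 μM final) were added. Residual contraction at 40 min was expressed as % of the initial KCl response.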

[2] = system: mean blood pressure in rat; experiment: Acute intravenous hypotensive activity in anesthetized rats; assay type: in vivo, rat (male Wistar); details: for hypotensive activity (in words): acute i.v., Table 4
Description: Male Wistar rats were anesthetized with Pentobarbital (Nembutal, 60 mg/kg i.p.) and heparinized (5 mg/kg i.p.). After tracheotomy the right carotid was cannulated (catheter PE 50); blood pressure was measured with a pressure transducer (Statham P 23 db) and recorded on a polygraph (Beckman).
Animals received 0.5 and 1.5 mg/kg of the test compounds. Less than 100 μl of test compounds dissolved in 0.9% saline were injected in the jugular vein. Highly water insoluble compounds were suspended in 2% Tween-80. Injection of the vehicle alone had no detectable hypotensive effect.
Results presented are expressed as percent decrease in initial mean blood pressure (Mean±SEM).

[3] = system: calcium channel binding site for [^3 H]-Nitrendipine (rat brain membranes); experiment: [^3 H]-Nitrendipine binding to rat brain membranes; design: species or system rat (male Wistar); details: Table 1a; for Specifically bound [^3 H]-Nitrendipine % of control value: compound concentration 1.0 μM; for Bound ^3 H at 1.0 μM / Bound ^3 H at 0.1 μM: ratio of [^3 H]-Nitrendipine bound at 1.0 and 0.1 μM compound
Method in brief: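 Cerebral cortex membranes from male Wistar rats (400 μg protein/tube) were incubated with [3H]-nitrendipine and compounds in 50 mM Tris-HCl pH 7.4/150 mM NaCl/1 mM CaCl2 under subdued light, ethanol ≤0.1%. Bound radioligand was collected by GF/B filtration and counted; data are percent specific binding versus control, with compounds judged at 1.0 μM final.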

[4] = system: isolated rat atrium (atrium rate); experiment: Chronotropic activity in isolated rat atrium; design: species or system rat (male SHR, Okamoto-Aoki); details: 5.0 × 10^-6 M, mean ± SEM, read-out: Decrease in atrium rate (% pretest)
Description: Spontaneously hypertensive male rats (SHR) (Okamoto-Aoki strain) were anesthetized with Pentobarbital (Nembutal Abbott, 60 mg/kg, i.p.). The hearts were quickly excised and both atria were dissected free from adjacent cardiac tissues. The atria were immediatly placed in a 50 ml Krebs-Ringer bath with the following composition (mM): NaCl, (120.0); KCl, (5.63); CaCl2, (2.0); MgCl2, (2.10); NaHCO3, (25.0); Glucose, (9.7) (pH 7.4). The solution was continuously bubbled with a O2 /CO2 mixture (95/5) and maintained at 37±1° C. The atrium was fixed to an optical displacement transducer (IITC, USA) under a resting tension of 1 g in order to measure atrial rate. The preparation was allowed to equilibrate for 40 min then cumulative dose-response curves were determined for each test compound (0.5-5 μMole/l). Maximum effect was normally obtained within 30-40 min. for each concentration.
Stock solutions of the 1,3-diphosphonates were generally prepared in 0.9% saline and water insoluble compounds were prepared in 50% ethanol. […] When tested at the concentration of 5.0×10^-6 M a decrease in atrium rate of more than 5% was considered as significant.
All data are presented as % decrease of initial atrium rate (mean values±SEM). A potent negative chronotropic effect was found with all compounds tested (table 3).

[5] = system: drug receptor sites associated with calcium channels; details: known calcium antagonists; cited from earlier work
[6] = system: slow inward current of the action potential; details: classical calcium antagonists; cited from earlier work
[7] = Rattus norvegicus, iv, read-out: Decrease in mean blood pressure (% pretest)

Structure (SMILES)	activity at 1 µM [1]	activity on KCl-induced trachea contraction (in words) [1]	inhibition in vivo at 0.5 mg/kg [2, 7]	hypotensive activity (in words) [2]	modulation of [^3 H]-Nitrendipine binding (in words) [3]	Specifically bound [^3 H]-Nitrendipine % of control value [3]	Bound ^3 H at 1.0 μM / Bound ^3 H at 0.1 μM [3]	inhibition at 5 µM [4]	effect on [^3 H]-Nitrendipine binding (in words) [5]	inhibition in vivo at 1 mg/kg ([2]; Rattus norvegicus, iv, 1.0 mg/kg, known hypotensive drugs, mean ± SEM, read-out: Decrease in mean blood pressure (% pretest))	inhibition of slow inward current (in words) [6]
CCCCOP(=O)(CC(Cc1ccccc1)CP(=O)(OCCCC)OCCCC)OCCCC [Compound 73, Tetrabutyl 2-benzyl-1,3-propylidenediphosphonate]	46.2 ± 1.8%	potent pharmacological activity	50 ± 3.8%	hypotensive activity superior to that of classical hypotensive drugs and of the calcium antagonists used as references	strong inhibitors	81 % of control value	0.862	18.8 ± 11.2%			
CCCCOP(=O)(CC(CCc1ccccc1)CP(=O)(OCCCC)OCCCC)OCCCC [Compound 74]	35 ± 1.2%	potent pharmacological activity	50.8 ± 2.7%	hypotensive activity superior to that of classical hypotensive drugs and of the calcium antagonists used as references		17 % of control value	0.380	8.3 ± 4.5%			
CCCCOP(=O)(CC(CCCc1ccccc1)CP(=O)(OCCCC)OCCCC)OCCCC [Compound 75, Tetrabutyl 2-(3-phenylpropyl)-1,3-propylidenediphosphonate]	70 ± 3%	potent pharmacological activity	22.8 ± 1.6%		strong inhibitors	22 % of control value	0.354	14.8 ± 4.8%			
CCCCOP(=O)(CC(Cc1cccc2ccccc12)CP(=O)(OCCCC)OCCCC)OCCCC [Compound 83]	62.5 ± 11.5%	potent pharmacological activity	10.6 ± 0.5%		strong inhibitors	36 % of control value	0.548	4.4 ± 0.6%			
COc1ccc([C@@H]2Sc3ccccc3N(CCN(C)C)C(=O)[C@@H]2OC(C)=O)cc1 [Diltiazem]									stimulators; also recorded: enhances [^3 H]Nitrendipine binding	47.9%	inhibit with very high specificity the slow inward current of the action potential
COC(=O)C1=C(C)NC(C)=C(C(=O)OC)C1c1ccccc1[N+](=O)[O-] [Nifedipine]											inhibit with very high specificity the slow inward current of the action potential
